What was measured:
male dd-strain mice [1] = test: Maximal electroshock seizure test; type: in vivo; conditions: Mus musculus, po, 1 h, P.O., shock 60 minutes after administration, suppression of tonic extensor in at least 3 of 5 mice, read-out: MED for anticonvulsive action, Maximal electroshock seizure test
Procedure: (1) Maximal electroshock seizure test
Groups of mice, each consisting of 5 male dd-strain mice having a weight of 20±1 g were orally administered with some of said compounds and 60 minutes thereafter, an electric current of 2,000 V, 50 mA was passed to both eyes of the mouse for 0.2 seconds to observe occurrence of tonic extensor. Suppression of tonic extensor occurrence on at least three mice was regarded as effective, and MED (minimum effective dose) for suppressing the convulsion was determined.

male dd-strain mice [2] = test: Pentetrazol-induced seizure test; type: in vivo; conditions: Mus musculus, po, P.O., 120 mg/kg pentetrazol s.c., suppression of clonic seizure in at least 3 of 5 mice, read-out: MED for anticonvulsive action, Pentetrazol-induced seizure test
Procedure: (2) Pentetrazol-induced seizure test
Groups of mice, each consisting of 5 male dd-strain mice having a weight of 20±1 g were subcutaneously administered by 120 mg/kg of pentetrazol, and occurrence of clonic seizure was observed. Suppression of clonic seizure occurrence on at least three mice was regarded as effective, and MED was determined.

Acute toxicity test = conditions: mouse, in vivo, po; P.O., mice, suspension in 0.3% CMC, 7 days after administration
male Carworth Farm mice = test: Anticonvulsive action: MES (maximum electroconvulsive procedure) and subcutaneous pentylenetetrazole seizure tests, combined evaluation; type: in vivo; conditions: Mus musculus, sc, dose levels 30, 100, 300 (600) mg/kg, MES and 85 mg/kg s.c. pentylenetetrazole tests, read-out: Evaluation (anticonvulsant activity class)
Procedure: The present test was performed in male Carworth Farm mice. All compounds were tested at least 3 dose levels (30, 100, 300 mg/kg) with a fourth dose of 600 mg/kg being performed when there was sufficient quantity available. The vehicles used to solubilize each compound were 30% aqueous polyethylene glycol solution (Compound Nos. 31 to 38, 45, 47 and 48) and 0.9% saline (Compound Nos. 44 and 46). The following two tests were performed. MES (Maximum electroconvulsive procedure) Maximal electroshock seizures were elicited with a 60 cycle alternating current of 50 mA intensity (5-7 times that necessary to elicit minimal electroshock seizures) delivered for 0.2 sec via corneal electrodes. A drop of 0.9% saline was instilled in the eye prior to application of the electrodes in order to prevent the death of the animal. Abolition of the hind limb tonic extension component of the seizure was defined as protection and results were expressed as: [formula] First, 85 mg/kg of pentylenetetrazole (produces seizures in greater than 95% of mice) was administered as a 0.5% solution subcutaneously in the posterior midline. […] Failure to observe even a threshold seizure (a single episode of clonic spasms of at least 5 sec duration) was defined as protection and the results were expressed as: [formula] (2) Evaluation method All results were classified into one of the following three evaluation standard: .circle.1 Anticonvulsant activity at 100 mg/kg or less .circle.2 Anticonvulsant activity at doses greater than 100 mg/kg, or anticonvulsant activity at 100 mg/kg not reinforced by similar activity at 300 mg/kg .circle.3 No anticonvulsant activity at doses up to and including 300 mg/kg

CN1C(=O)CCN(c2ccc(Cl)cc2)C1=O [Compound 3, 1-(4-chlorophenyl)-3-methyl-dihydrouracil]
minimal effective dose (male dd-strain mice [1]): 75 mg/kg | minimal effective dose (male dd-strain mice [2]): 200 mg/kg | LD50 at 168 h (Acute toxicity test): > 300 mg/kg

CN1C(=O)CCN(c2cccc(C(F)(F)F)c2)C1=O [Compound 7, 3-methyl-1-(3-trifluoromethylphenyl)-dihydrouracil]
minimal effective dose (male dd-strain mice [1]): 100 mg/kg | minimal effective dose (male dd-strain mice [2]): 100 mg/kg | LD50 at 168 h (Acute toxicity test): > 1000 mg/kg

Cc1cc(Cl)ccc1N1CCC(=O)N(C)C1=O [Compound 9, 1-(2-methyl-4-chlorophenyl)-3-methyl-dihydrouracil]
minimal effective dose (male dd-strain mice [1]): 150 mg/kg | minimal effective dose (male dd-strain mice [2]): 200 mg/kg | LD50 at 168 h (Acute toxicity test): > 300 mg/kg

CN1CCC(=O)N(c2cc(Cl)ccc2Cl)C1=O [Compound 24, 3-(2,5-dichlorophenyl)-1-methyl-dihydrouracil]
minimal effective dose (male dd-strain mice [1]): 100 mg/kg | minimal effective dose (male dd-strain mice [2]): 100 mg/kg | LD50 at 168 h (Acute toxicity test): > 300 mg/kg

CN1CCC(=O)N(c2ccccc2Cl)C1=O [Compound 29, 3-(2-chlorophenyl)-1-methyl-dihydrouracil]
minimal effective dose (male dd-strain mice [1]): 150 mg/kg | minimal effective dose (male dd-strain mice [2]): 150 mg/kg | LD50 at 168 h (Acute toxicity test): > 300 mg/kg

CN1C(=O)CCN(c2ccc(Cl)cc2Cl)C1=O [Compound 31, 1-(2,4-dichlorophenyl)-3-methyl-dihydrouracil]
minimal effective dose (male dd-strain mice [1]): 100 mg/kg | minimal effective dose (male dd-strain mice [2]): 100 mg/kg | minimal effective dose (male Carworth Farm mice): ≤ 100 mg/kg | LD50 at 168 h (Acute toxicity test): > 300 mg/kg

O=C1CCN(c2ccc(Cl)cc2)C(=O)N1 [Compound 32, 1-(4-chlorophenyl)-dihydrouracil]
minimal effective dose (male Carworth Farm mice): > 100 mg/kg

CN1C(=O)CCN(c2ccc(C(F)(F)F)cc2)C1=O [Compound 33, 3-methyl-1-(4-trifluoromethylphenyl)-dihydrouracil]
minimal effective dose (male dd-strain mice [1]): 100 mg/kg | minimal effective dose (male dd-strain mice [2]): 300 mg/kg | minimal effective dose (male Carworth Farm mice): ≤ 100 mg/kg | LD50 at 168 h (Acute toxicity test): > 300 mg/kg

CN1CCC(=O)N(c2cccc(Cl)c2Cl)C1=O [Compound 34, 3-(2,3-dichlorophenyl)-1-methyl-dihydrouracil]
minimal effective dose (male dd-strain mice [1]): 150 mg/kg | minimal effective dose (male dd-strain mice [2]): 300 mg/kg | minimal effective dose (male Carworth Farm mice): ≤ 100 mg/kg | LD50 at 168 h (Acute toxicity test): > 300 mg/kg

CN1CCC(=O)N(c2ccccc2C(F)(F)F)C1=O [Compound 35, 1-methyl-3-(2-trifluoromethylphenyl)-dihydrouracil]
minimal effective dose (male Carworth Farm mice): > 100 mg/kg

CN1CCC(=O)N(c2ccc(Cl)cc2Cl)C1=O [Compound 36, 3-(2,4-dichlorophenyl)-1-methyl-dihydrouracil]
minimal effective dose (male dd-strain mice [1]): 100 mg/kg | minimal effective dose (male dd-strain mice [2]): 200 mg/kg | minimal effective dose (male Carworth Farm mice): ≤ 100 mg/kg | LD50 at 168 h (Acute toxicity test): > 300 mg/kg

Cc1cccc(Cl)c1N1C(=O)CCN(C)C1=O [Compound 37, 3-(2-chloro-6-methylphenyl)-1-methyl-dihydrouracil]
minimal effective dose (male Carworth Farm mice): > 100 mg/kg

CN1CCC(=O)N(c2ccccc2F)C1=O [Compound 38, 3-(2-fluorophenyl)-1-methyl-dihydrouracil]
minimal effective dose (male Carworth Farm mice): > 100 mg/kg

CN1C(=O)CCN(c2ccc(N)cc2)C1=O.Cl [Compound 44, 1-(4-aminophenyl)-3-methyl-dihydrouracil hydrochloride]
minimal effective dose (male Carworth Farm mice): ≤ 100 mg/kg

CN1CCC(=O)N(c2ccccc2[N+](=O)[O-])C1=O [Compound 45, 1-methyl-3-(2-nitrophenyl)-dihydrouracil]
minimal effective dose (male Carworth Farm mice): > 100 mg/kg

CN1CCC(=O)N(c2ccccc2N)C1=O.Cl [Compound 46, 3-(2-aminophenyl)-1-methyl-dihydrouracil hydrochloride]
minimal effective dose (male Carworth Farm mice): > 100 mg/kg

CN1CCC(=O)N(c2cccc3ccccc23)C1=O [Compound 47, 1-methyl-3-α-naphthyl-dihydrouracil]
minimal effective dose (male dd-strain mice [1]): 100 mg/kg | minimal effective dose (male dd-strain mice [2]): 200 mg/kg | minimal effective dose (male Carworth Farm mice): ≤ 100 mg/kg | LD50 at 168 h (Acute toxicity test): > 300 mg/kg

CCOC(=O)c1ccccc1N1C(=O)CCN(C)C1=O [Compound 48, 3-(2-ethoxycarbonylphenyl)-1-methyl-dihydrouracil]
minimal effective dose (male Carworth Farm mice): ≤ 100 mg/kg

— US4588729A, “Treating convulsions with dihydrouracil derivatives” (Kyowa Hakko Kogyo Co., Ltd., priority 1984, dated 1986)
